The text below walks through data of publication PMC3523126 (Journal of the American Chemical Society, 2012).

The target of test [1] is T1, Calpain-1 (Homo sapiens, UniProt P07384).
T1 sequence (P07384 1-714): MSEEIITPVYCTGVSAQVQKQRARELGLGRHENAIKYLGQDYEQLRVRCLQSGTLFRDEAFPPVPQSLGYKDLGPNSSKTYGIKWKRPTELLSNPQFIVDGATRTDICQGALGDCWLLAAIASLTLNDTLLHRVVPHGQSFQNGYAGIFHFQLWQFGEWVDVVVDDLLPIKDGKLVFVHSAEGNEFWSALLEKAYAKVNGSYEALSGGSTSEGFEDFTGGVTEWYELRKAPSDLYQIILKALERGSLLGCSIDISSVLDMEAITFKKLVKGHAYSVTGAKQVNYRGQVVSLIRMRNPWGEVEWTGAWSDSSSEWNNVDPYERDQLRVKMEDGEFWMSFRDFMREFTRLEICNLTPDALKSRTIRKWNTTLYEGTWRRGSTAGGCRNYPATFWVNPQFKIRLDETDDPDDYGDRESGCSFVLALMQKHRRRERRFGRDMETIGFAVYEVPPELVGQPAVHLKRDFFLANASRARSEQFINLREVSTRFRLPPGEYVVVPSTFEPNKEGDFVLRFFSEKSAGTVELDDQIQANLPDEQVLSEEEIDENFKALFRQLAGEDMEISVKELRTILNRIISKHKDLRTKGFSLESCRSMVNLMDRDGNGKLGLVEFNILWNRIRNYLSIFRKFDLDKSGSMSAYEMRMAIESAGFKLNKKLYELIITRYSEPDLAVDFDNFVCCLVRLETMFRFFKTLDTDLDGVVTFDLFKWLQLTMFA
T1 sequence (P04632 1-268 partner): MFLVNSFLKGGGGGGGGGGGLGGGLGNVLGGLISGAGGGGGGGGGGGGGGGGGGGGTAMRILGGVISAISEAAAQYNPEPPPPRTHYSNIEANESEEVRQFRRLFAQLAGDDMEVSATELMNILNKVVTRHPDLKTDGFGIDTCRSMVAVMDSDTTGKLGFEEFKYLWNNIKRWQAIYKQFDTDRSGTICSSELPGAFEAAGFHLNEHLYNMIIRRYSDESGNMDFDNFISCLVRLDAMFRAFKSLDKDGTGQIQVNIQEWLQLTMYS
The following applies: pan-papain family cysteine protease ABP; cited from earlier work.

Test [2] deals with T1, Calpain-1. Kind of test: Kinetic analysis of calpain-1 inhibition. The format is biochemical. The following applies: crosslinked peptide; Michaelis-Menten and Lineweaver-Burke analysis.
For the next test, the target named is Cathepsin L (Homo sapiens, UniProt P07711). The test is described as follows: Protease fluorescence activity assay, cathepsin L inhibition. The format is biochemical. The following applies: crosslinked peptide; ratio of Ki values.

SMILES strings stand for the structures.

Sequence of Cathepsin L (P07711 114-333, species assumed): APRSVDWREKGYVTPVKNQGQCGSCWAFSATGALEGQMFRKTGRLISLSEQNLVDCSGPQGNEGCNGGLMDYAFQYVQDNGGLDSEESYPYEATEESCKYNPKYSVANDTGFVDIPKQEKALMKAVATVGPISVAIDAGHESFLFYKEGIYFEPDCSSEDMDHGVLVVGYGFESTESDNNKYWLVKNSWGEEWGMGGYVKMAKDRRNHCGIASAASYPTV

With `CCOC(=O)[C@H]1O[C@@H]1C(=O)N[C@@H](CC(C)C)C(=O)N[C@@H](Cc1ccc(O)cc1)C(=O)NCCCCCC(=O)N[C@@H](CCCCNC(=O)CCCC[C@@H]1SC[C@@H]2NC(=O)N[C@@H]21)C(N)=O` [DCG-04], the “Labeling of calpains (positive control)” value on Calpain-1 [1] is “known to label calpains”.
Regarding `CC[C@H](C)[C@H](NC(C)=O)C(=O)N1CCC[C@H]1C(=O)N1CCC[C@H]1C(=O)N[C@@H](CCCCN)C(=O)N[C@@H](Cc1ccc(O)cc1)C(=O)N[C@H]1CSCc2cccc(c2)CSC[C@@H](C(N)=O)NC(=O)[C@H](CC(C)C)NC(=O)[C@H](CC(C)C)NC(=O)[C@H](CCC(=O)O)NC1=O` [Peptide 3c], at Calpain-1 [2], the “Mechanism of calpain-1 inhibition” value is “competitive inhibitor”. Further, at Cathepsin L, the “Potency against calpain over cathepsin L” value was “about four fold more potent”.
